# Results from patent publication US20040229268A1, “Method and kit for identifying antibiotic-resistant microorganisms” (priority 2003, published 2004).
# Tested on: mecA gene; Staphylococcus ribosomal nucleic acids
# Assay: HPA after thermal lysis, base hydrolysis and neutralization (Examples 5-7)
# Assay type: binding, S. aureus
# Conditions: Table 10; neutralize 100 μl 2 N HCl containing 200 mM succinate; hybridize 45 minutes at 60° C.
# Procedure: The cultured S. aureus specimens were lysed by suspending 1 μl loops of bacteria in 150 μl of lysis buffer and then incubating at 105° C. for 15 minutes. Next, 100 μl of 2 N LiOH base solution was added and RNA was hydrolyzed by incubating the mixtures at 60° C. for 15 minutes. Hydrolyzed samples were neutralized by the addition of 100 μl of a neutralizing reagent that included 2 N HCl and 100 mM succinate buffer (pH 5.5 prior to acidification with HCl). Specifically hybridized probe was detected by standard HPA, essentially as described in Example 1.
# Specimens (1 μl loops of bacteria) were treated and tested essentially as described in Example 5 with the following differences: incubation for lysis was for 15 minutes and incubation for hybridization was for 45 minutes for samples shown in Tables 7-8, while incubation for lysis was for 10 minutes and incubation for hybridization was for 20 minutes for samples shown in Table 9. All of the base-treated solutions were neutralized by the addition of 250 μl of 0.8 N HCl containing 100 mM succinate.
# 2′-methoxy analogs of the AE-labeled DNA probes were prepared by standard phosphoramidite synthesis using 2′ methoxy phosphoramidite analogs. Additional linker positions, which are indicated by parentheses in Table 11, for probe 2 were also prepared for testing. Deoxy probes and 2′-methoxy probe analogs were tested essentially as described in Example 5, except as noted below. Probes synthesized using 2′-methoxy nucleotide analogs are particularly identified by the “MeO” designations. Brief summaries of the procedures used to obtain the results are appended to the tables.
substance,measurement,value
"MeO-probe 2: 2′-methoxy analog of AE-labeled probe 2 (SEQ ID NO:2); linker position not printed in Table 10 (DNA CGCTATGATCCCAATCTAACTTCCACATACC; all 2'-O-methyl, backbone and T or U not given here; acridinium ester label on internal non-nucleotide linker; listed as Staphylococcus aureus)",GP1214(Neg) RLU,5242 RLU
same,GP1217(Pos) RLU,69687 RLU
same,Probe alone Avg RLU,2378 RLU
